Assay results from the CheMixHub viscosity set.

Assay: xn = mol fraction of the nth substance listed

O=C(O)c1cccnc1 + O
viscosity [mPa·s]
Conditions	100 kPa	101 kPa
298.15 K, x1 = 0.000225	0.8934	0.8934
298.15 K, x1 = 0.000268	0.903	–
298.15 K, x1 = 0.000452	0.8963	0.8963
298.15 K, x1 = 0.0005074	–	0.8966
298.15 K, x1 = 0.0007821	–	0.9016
298.15 K, x1 = 0.000808	0.908	–
298.15 K, x1 = 0.000907	0.902	0.902
298.15 K, x1 = 0.00135	0.913	–
298.15 K, x1 = 0.0015	–	0.893
298.15 K, x1 = 0.00162	0.916	–
303.15 K, x1 = 0.000542	0.809	–
303.15 K, x1 = 0.000808	0.812	–
303.15 K, x1 = 0.00108	0.814	–
308.15 K, x1 = 0.000452	–	0.7233
308.15 K, x1 = 0.0005074	–	0.7239
308.15 K, x1 = 0.00108	0.746	–
308.15 K, x1 = 0.001153	–	0.7288
308.15 K, x1 = 0.001301	–	0.7321
308.15 K, x1 = 0.00135	0.75	–
308.15 K, x1 = 0.00136	0.732	0.732
308.15 K, x1 = 0.001617	–	0.7347
308.15 K, x1 = 0.00162	0.754	–
308.15 K, x1 = 0.001957	–	0.7385
313.15 K, x1 = 0.000808	0.673	–
313.15 K, x1 = 0.00108	0.677	–
313.15 K, x1 = 0.00135	0.681	–
313.15 K, x1 = 0.00162	0.685	–
318.15 K, x1 = 0.000225	0.5976	0.5976
318.15 K, x1 = 0.000268	0.61	–
318.15 K, x1 = 0.000542	0.614	–
318.15 K, x1 = 0.0007	–	0.584
318.15 K, x1 = 0.0007821	–	0.602
318.15 K, x1 = 0.000808	0.617	–
318.15 K, x1 = 0.000907	0.6036	0.6036
318.15 K, x1 = 0.00108	0.62	–
318.15 K, x1 = 0.001153	–	0.6035
318.15 K, x1 = 0.00135	0.624	–
318.15 K, x1 = 0.00136	0.608	0.608
318.15 K, x1 = 0.0015	–	0.587
318.15 K, x1 = 0.001617	–	0.6081
318.15 K, x1 = 0.00162	0.628	–
318.15 K, x1 = 0.001957	–	0.61
318.15 K, x1 = 0.0022	–	0.589

O=[N+]([O-])[O-].O=[N+]([O-])[O-].[Ni+2] + O
Conditions	viscosity [mPa·s]
322.46 K, 100 kPa, x1 = 0.03889	1.225

O=[N+]([O-])[O-].[Li+] + O
100 kPa
Conditions	viscosity [mPa·s]
298.11 K, x1 = 0.0088	0.9305
298.18 K, x1 = 0.00475	0.9105
298.35 K, x1 = 0.01898	0.9846
298.45 K, x1 = 0.02699	1.04
306.75 K, x1 = 0.02699	0.8753
307.65 K, x1 = 0.01898	0.8088
307.85 K, x1 = 0.00475	0.746
308.95 K, x1 = 0.0088	0.7411

[Cs+].[I-] + O
310.15 K, 101 kPa
Conditions	viscosity [mPa·s]
x1 = 0.000182	0.6958
x1 = 0.000913	0.6971
x1 = 0.001829	0.6934
x1 = 0.002695	0.6844
x1 = 0.003679	0.6676
x1 = 0.005197	0.6281
x1 = 0.005988	0.6009

[F-].[Na+] + O
viscosity [mPa·s], 101 kPa
Conditions	x1 = 0.0009	x1 = 0.0018	x1 = 0.002	x1 = 0.0027	x1 = 0.0036	x1 = 0.005	x1 = 0.009
303.15 K	0.809	0.82	0.819	0.826	0.835	0.853	0.896
308.15 K	0.734	0.746	0.747	0.755	0.761	0.775	0.81
313.15 K	0.667	0.682	–	0.688	0.694	0.707	0.738
318.15 K	0.61	0.621	0.623	0.629	0.635	0.648	0.675

Nc1cccc(Cl)c1 + O=C1CCCCC1
viscosity [mPa·s], 100 kPa
Conditions	x1 = 0.0814	x1 = 0.1705	x1 = 0.2826	x1 = 0.3886	x1 = 0.4996	x1 = 0.5895	x1 = 0.6899	x1 = 0.7755	x1 = 0.8882
303.15 K	1.954	2.11	2.323	2.542	2.793	3.014	3.28	3.525	3.875
308.15 K	1.779	1.92	2.112	2.31	2.535	2.733	2.971	3.191	3.503
313.15 K	1.589	1.716	1.888	2.065	2.266	2.442	2.655	2.85	3.128
318.15 K	1.382	1.495	1.648	1.805	1.984	2.141	2.33	2.505	2.753

CC(=O)CCC(=O)O + O=C(O)[C@@H]1CCCN1
100 kPa, x1 = 0.667
Conditions	viscosity [mPa·s]
303.15 K	955
308.15 K	636.1
313.15 K	432.5
318.15 K	301
323.15 K	219.6

CCCCCCCCCCCCCC[P+](CCCCCC)(CCCCCC)CCCCCC.c1c[n-]nn1 + O=C=O
Conditions	viscosity [mPa·s]
298.15 K, 100 kPa, x2 = 0.38	419

CCCCN(CCO)CCCC + O=S=O
303.15 K, 100 kPa
Conditions	viscosity [mPa·s]
x2 = 0.17	19.3
x2 = 0.33	198.3
x2 = 0.45	2527

CCC(=O)O + O=[N+]([O-])c1ccccc1
viscosity [mPa·s], 101 kPa
Conditions	x1 = 0.1311	x1 = 0.2535	x1 = 0.3679	x1 = 0.4752	x1 = 0.5759	x1 = 0.6708	x1 = 0.7601	x1 = 0.8445	x1 = 0.9244
298.15 K	1.763	1.711	1.663	1.612	1.551	1.478	1.392	1.291	1.175
308.15 K	1.469	1.452	1.428	1.394	1.346	1.285	1.21	1.121	1.019
318.15 K	1.35	1.42	1.421	1.376	1.301	1.207	1.106	1.002	0.9012
